Entries after “also recorded” stand apart in the source; their conditions may differ.
What was measured:
Assay type in all cases: cell-based, rat
[1] = test system: hepatocytes; assay: Cell G6P / hexose 6-phosphate (H6P) determination in hepatocytes; details: for glucose-6-phosphate concentration / H6P concentration: hepatocytes; for glucose-6-phosphate concentration: 2 hours, 10 nM insulin, 5, 15 or 25 mM glucose, 10 μM GKA vs glucose alone (FIG. 2B); for H6P concentration: 5 or 10 mM DG with 5 mM glucose (FIG. 6B)
Protocol: (§1) Hepatocytes were isolated from male Wistar rats (body wt 200-300 g) (Envigo, Bicester, UK). Procedures conformed to Home Office Regulations. The hepatocytes were suspended in Minimum Essential Medium (MEM) 21430 (Life Technologies, GIBCO BRL, Grand Island, N.Y.) with 5% (v/v) calf serum (Life Technologies, GIBCO BRL, Grand Island, N.Y.) and seeded on gelatin-coated plates. After cell attachment (˜4 hours) the medium was replaced by serum-free medium containing 5 mM glucose, 10 nM dexamethasone, 1 nM insulin and experiments were started after ˜20 hours culture by challenge with media containing 5 mM glucose, 15 mM glucose or 25 mM glucose and other additions as indicated.
Hepatocytes were incubated for 1 or 2 hours in MEM containing 10 nM insulin and 5, 15, or 25 mM glucose with or without 10μM GKA 3-cyclopentyl-2-(4-methanesulfonylphenyl)-N-thiazol-2-yl-propionamide (RO 28-1675) (Axon MedChem BV, Groningen) for determination of glucose phosphorylation (nmol/2 h per mg) and cell G6P (nmol/mg protein).
(§2) Incubations with 2-deoxyglucose (DG) where carried out as described previously but with 5 or 10 mM DG with 5 mM glucose (5G) and with or without 2 μM S4048.
Medium containing the cultured hepatocytes was drained from cell culture plates and the plates were snap-frozen in liquid nitrogen and stored at −80° C. For H6P determination, cells were extracted in 2.5% sulphosalicylic acid for deproteinization (10,000g, 10 min) and the supernatants were then neutralized with KOH/KH^2PO4 (3 M/1 M) and metabolites assayed on the neutralized deproteinized extracts. For fructose 2,6-P2, cells were extracted in 0.15 M NaOH.
For G6P and H6P determination the assay procedure involved coupling of the dehydrogenation of G6P by glucose-6-phosphate dehydrogenase to the […] by the reduction of the molecule resazurin to resorufin by NADP measured by the […]. Standards of G6P (2 to 20 μM) were prepared in 2.5% sulphosalicylic acid and neutralized with KOH/KH2PO4 (3 M/1 M) as in samples for metabolite determination. Standards and samples (20 μl) were then assayed in a final reaction volume of 200 μI containing 50 mM triethanolamine (TEA, pH 7.6), 1.0 mM MgCl2, 100 μM NADP+, 10 μM resazurin, 0.1 U/ml G6PD, and 0.2 U/ml diaphorase. The mixtures were then incubated for 30 min at room temperature. Fluorescence at 590 nm was measured using excitation at 530 nm using a plate reader (M5E Molecular devices). Background fluorescence was corrected by subtracting the value of the no-G6P control from all sample readings and sample values were read off the linear standard curve determined from the G6P standards.
Metabolites are expressed as nmol/mg protein except for fructose 2,6-P2 which is expressed as pmol/mg of total cell protein determined by a Lowry assay.

[2] = test system: hepatocytes; assay: Glucose phosphorylation in hepatocytes ([2-3H]glucose to 3H2O); details: 2 hours, 10 nM insulin, 5, 15 or 25 mM glucose, 10 μM GKA vs glucose alone (FIG. 2A)
Protocol: as §1

[3] = test system: G6pc mRNA; assay: Relative G6pc mRNA expression in hepatocytes (real-time RT-PCR); details: for relative expression of G6pc mRNA: 4 hours; for G6pc mRNA relative expression: 5 or 10 mM DG with 5 mM glucose (FIG. 6C)
Protocol: as §1
(§3) Incubations for mRNA analysis and fructose 2,6-bisphosphate were for 4 hrs in MEM with 5, 15, or 25 mM glucose with or without 10 nM insulin and with or without 2 mM fructose. In samples including GKA, 10 μM GKA RO 28-1675 was added.
as §2
(§4) RNA was extracted using TRIzol (Invitrogen) and cDNA was synthesized from 1 μg of RNA with MMLV (Promega). Real-time RT-PCR was performed in a total volume of 10 μl containing 50 ng of reverse transcribed RNA and 5 ng of forward and reverse primers using a Sybr-Green protocol (Promega) in a Roche Capillary Light Cycler. Relative mRNA levels (vs control) were calculated by the delta cycle threshold method.

[4] = test system: Pklr mRNA; assay: Relative Pklr mRNA expression in hepatocytes (real-time RT-PCR); details: 4 hours, listed as GKA
Protocol: as §1, §3, §2
RNA was extracted using TRIzol (Invitrogen) and cDNA was synthesized from 1 μg of RNA with MMLV (Promega). […] Relative mRNA levels (vs control) were calculated by the delta cycle threshold method.

[5] = test system: hepatocytes; assay: Fructose 2,6-bisphosphate determination in hepatocytes; details: 4 hours, GKA with 15 mM glucose vs 5 mM and 15 mM glucose alone, without or with 10 nM insulin (FIG. 3A), listed as GKA
Protocol: as §1, §3

[6] = test system: Gck mRNA; assay: Relative Gck mRNA expression in hepatocytes (real-time RT-PCR); details: for relative expression of Gck mRNA: 4 hours, listed as GKA; for Gck mRNA relative expression: 5 or 10 mM DG with 5 mM glucose (FIG. 6D)
Protocol: as §1, §3, §2, §4

`CS(=O)(=O)c1ccc(C(CC2CCCC2)C(=O)Nc2nccs2)cc1` (stereo not drawn) [RO 28-1675, 3-cyclopentyl-2-(4-methanesulfonylphenyl)-N-thiazol-2-yl-propionamide] was tested, and the “fractional increase in G6P compared with fractional increase in metabolic flux” value ([1]; basal (5 mM) and moderate (15 mM) glucose, 10 μM GKA) was “greater”, the glucose-6-phosphate concentration [1] was “increased the concentration of G6P more than glucose alone” and the glucose-6-phosphate concentration ([1]; listed as GKA) was “increases the cell concentration of G6P at all glucose concentrations”. For the same compound, the glucose phosphorylation [2] was “increased phosphorylation more than glucose alone”, the glucose phosphorylation ([2]; listed as GKA) was “increases the rate of phosphorylation of glucose” and the “relative expression of G6pc mRNA” value ([3]; 10 nM insulin, 5, 15 or 25 mM glucose, -/+ 10 μM GKA (FIG. 4C), listed as GKA) was “induces the expression of both G6pc and Pklr mRNA; also recorded: increased relative expression of Pklr mRNA and G6pc mRNA at all glucose concentrations”. The “relative expression of G6pc mRNA” value ([3]; GKA with 15 mM glucose vs 5 mM and 15 mM glucose alone (FIG. 3B)) was “increase in relative expression of both Pklr and G6pc mRNA”, the “relative expression of Pklr mRNA” value ([4]; 10 nM insulin, 5, 15 or 25 mM glucose, -/+ 10 μM GKA (FIG. 4B)) was “induces the expression of both G6pc and Pklr mRNA; also recorded: increased relative expression of Pklr mRNA” and the “relative expression of Pklr mRNA” value ([4]; GKA with 15 mM glucose vs 5 mM and 15 mM glucose alone (FIG. 3C)) was “increase in relative expression of both Pklr and G6pc mRNA; also recorded: increased relative expression of Pklr mRNA”. For the same compound, the “fructose 2,6-bisphosphate concentration” value [5] was “increase in F-2,6-P2; also recorded: increases F-2,6-P2 more than 5 mM glucose and 15 mM glucose”, the “relative expression of Gck mRNA” value ([6]; 10 nM insulin, 5, 15 or 25 mM glucose, -/+ 10 μM GKA (FIG. 4A)) was “represses the relative expression of Gck; also recorded: able to reduce Gck expression; also recorded: reduced the relative expression of Gck mRNA at all glucose concentrations” and the “relative expression of Gck mRNA” value ([6]; GKA with 15 mM glucose vs 5 mM and 15 mM glucose alone (FIG. 3D)) was “decrease in relative expression of Gck mRNA; also recorded: decreased relative expression of Gck mRNA”.

In the case of `O=CC[C@@H](O)[C@H](O)[C@H](O)CO` [DG, 2-deoxyglucose], the H6P concentration [1] is reported as “causes elevation in the cell hexose 6-phosphate (H6P) content”, the H6P concentration ([1]; listed as 2DG) is reported as “H6P concentration increases with increasing 2DG” and the “G6pc mRNA relative expression” value [3] is reported as “does not cause induction of expression of G6pc mRNA”. For the same compound, the “G6pc mRNA relative expression” value ([3]; listed as 2DG) was “does not affect G6pc mRNA relative expression”, the “Gck mRNA relative expression” value [6] was “repression of Gck mRNA” and the “Gck mRNA relative expression” value ([6]; listed as 2DG) was “decrease in Gck mRNA expression”.
